From patent US20260297070A1, “CYCLIC [COMPOUND LEFT OUT] WRN INHIBITORS” (Nimbus Wadjet, Inc., priority 2023, published 2026) come the findings set out here.

SMILES strings stand for the structures.

T1 sequence (Q14191 with tags, fused parts or gaps L1074F limits assumed): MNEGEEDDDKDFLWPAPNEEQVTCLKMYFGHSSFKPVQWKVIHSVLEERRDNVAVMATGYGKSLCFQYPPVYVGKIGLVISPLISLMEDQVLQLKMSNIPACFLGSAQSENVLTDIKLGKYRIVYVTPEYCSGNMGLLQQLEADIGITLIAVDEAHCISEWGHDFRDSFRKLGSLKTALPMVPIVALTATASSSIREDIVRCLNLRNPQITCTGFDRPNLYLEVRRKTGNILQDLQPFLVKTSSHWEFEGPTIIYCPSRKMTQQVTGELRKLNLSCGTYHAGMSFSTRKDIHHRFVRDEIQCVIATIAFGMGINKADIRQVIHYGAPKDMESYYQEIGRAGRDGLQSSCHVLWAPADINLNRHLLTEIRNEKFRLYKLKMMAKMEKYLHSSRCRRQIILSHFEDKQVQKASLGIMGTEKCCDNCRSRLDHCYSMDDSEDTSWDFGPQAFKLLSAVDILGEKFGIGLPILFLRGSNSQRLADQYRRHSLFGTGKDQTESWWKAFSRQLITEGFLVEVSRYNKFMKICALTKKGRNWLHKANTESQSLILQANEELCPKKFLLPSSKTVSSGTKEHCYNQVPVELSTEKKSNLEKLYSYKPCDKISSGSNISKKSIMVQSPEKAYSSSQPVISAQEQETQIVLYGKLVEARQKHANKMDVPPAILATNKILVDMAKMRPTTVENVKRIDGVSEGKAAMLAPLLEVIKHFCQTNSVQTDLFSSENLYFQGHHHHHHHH

The experiment concerns the target T1, human Werner helicase (WRN-BV08, Uniprot Q14191, amino acids 517-1235 with L1074F point mutation) (Homo sapiens, UniProt Q14191, L1074F).
T1 construct: Uniprot Q14191, amino acids 517-1235 with L1074F point mutation; TEV-cleavable 8×His (C, cleaved yes); made in house; host or cells: Sf9 insect cells (baculovirus)
Kind of experiment: WRN (BV08) ADP-Glo Assay. In kind it is biochemical. To be noted: 0.15 nM WRN, 5 μM ATP, 0.1 nM DNA duplex, 15 min preincubation, 60 min at 25° C., pH 7.5, 1% DMSO; read-out: ADP-Glo_hWRN_IC50. A digest of the protocol: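 0.15 nM WRN (aa 517-1235, L1074F, Sf9-expressed, tag cleaved) preincubated 15 min at 25 °C with compound, then 5 μM ATP and 0.1 nM DNA duplex added for 60 min. Buffer: 20 mM Bicine pH 7.5, 1 mM MgCl2, 10 mM KCl, 1 mM TCEP; 1% DMSO. ADP-Glo luminescence; IC50 by 4-parameter fit.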
(In general: ADP-Glo turns the ADP formed in a reaction into a luminescent signal.)
For `COc1cc(CN(C(=O)C(C)n2cc(-c3ccc(F)cc3)cn2)[C@@H]2C=CS(=O)(=O)C2)ccn1` (stereo partly drawn) [I-137, N-[(3R)-1,1-dioxo-2,3-dihydro-1lambda6-thiophen-3-yl]-2-[4-(4-fluorophenyl)-1H-pyrazol-1-yl]-N-[(2-methoxypyridin-4-yl)methyl]propanamide], the IC50 was in the range of 500 to 5000 nM.
The figure for `Cc1cccn1-c1ccc(CC(=O)N(Cc2ccc(C(=O)O)cc2)C2C=CS(=O)(=O)C2)c(F)c1` (centres unmarked) [I-138, 4-{[N-(1,1-dioxo-2,3-dihydro-1lambda6-thiophen-3-yl)-2-[2-fluoro-4-(2-methyl-1H-pyrrol-1-yl)phenyl]acetamido]methyl}benzoic acid] is 500 to 5000 nM; for `Cc1cccn1-c1ccc(CC(=O)N(Cc2ccnc(CC(C)(C)O)c2)C2C=CS(=O)(=O)C2)c(F)c1` (centres unmarked) [I-139, N-(1,1-dioxo-2,3-dihydro-1lambda6-thiophen-3-yl)-2-[2-fluoro-4-(2-methyl-1H-pyrrol-1-yl)phenyl]-N-{[2-(2-hydroxy-2-methylpropyl)pyridin-4-yl]methyl}acetamide] it is 500 to 5000 nM.
In the case of `O=C(C(C(=O)N(Cc1ccncc1)C1C=CS(=O)(=O)C1)c1ccc(-c2ccc(F)cc2)cc1)N1CCC1` (centres unmarked) [I-140, 3-(azetidin-1-yl)-N-(1,1-dioxo-2,3-dihydro-1lambda6-thiophen-3-yl)-2-{4′-fluoro-[1,1′-biphenyl]-4-yl}-3-oxo-N-[(pyridin-4-yl)methyl]propanamide], the IC50 was in the range of 500 to 5000 nM.
Consider `CCOc1cc(CN(C(=O)Cc2ccc(-n3cccc3)cc2)C2C=CS(=O)(=O)C2)ccn1` (centres unmarked) [I-141, N-(1,1-dioxo-2,3-dihydro-1lambda6-thiophen-3-yl)-N-[(2-ethoxypyridin-4-yl)methyl]-2-[4-(1H-pyrrol-1-yl)phenyl]acetamide], for which the IC50 fell in the range of 500 to 5000 nM.
As for `CNc1cc(CN(C(=O)Cc2ccc(-n3cccc3C)cc2F)C2C=CS(=O)(=O)C2)ccn1` (centres unmarked) [I-142, N-(1,1-dioxo-2,3-dihydro-1lambda6-thiophen-3-yl)-2-[2-fluoro-4-(2-methyl-1H-pyrrol-1-yl)phenyl]-N-{[2-(methylamino)pyridin-4-yl]methyl}acetamide], the IC50 was 500 to 5000 nM.
For `O=C(Cc1ccc(-c2ccc(F)c(F)c2)cc1)N(Cc1ccncc1)C1C=CS(=O)(=O)C1` (centres unmarked) [I-143, 2-{3′,4′-difluoro-[1,1′-biphenyl]-4-yl}-N-(1,1-dioxo-2,3-dihydro-1lambda6-thiophen-3-yl)-N-[(pyridin-4-yl)methyl]acetamide], the IC50 is 500 to 5000 nM.
On to `COC(C(=O)N(Cc1ccncc1)C1C=CS(=O)(=O)C1)c1ccc(-c2ccc(F)cc2)cc1` (centres unmarked) [I-144, N-(1,1-dioxo-2,3-dihydro-1lambda6-thiophen-3-yl)-2-{4′-fluoro-[1,1′-biphenyl]-4-yl}-2-methoxy-N-[(pyridin-4-yl)methyl]acetamide], for which the IC50 was in the range of 500 to 5000 nM.
For `O=C(Cc1ccc(-n2cccc2)cc1)N(Cc1nc(C(F)(F)F)cs1)C1C=CS(=O)(=O)C1` (centres unmarked) [I-145, N-(1,1-dioxo-2,3-dihydro-1lambda6-thiophen-3-yl)-2-[4-(1H-pyrrol-1-yl)phenyl]-N-{[4-(trifluoromethyl)-1,3-thiazol-2-yl]methyl}acetamide], the IC50 lay in the range of 500 to 5000 nM.
For the molecule `O=C(Cc1ccc(-n2cccc2)cc1)N(Cc1nc(-c2cccnc2)cs1)C1C=CS(=O)(=O)C1` (centres unmarked) [I-146, N-(1,1-dioxo-2,3-dihydro-1lambda6-thiophen-3-yl)-N-{[4-(pyridin-3-yl)-1,3-thiazol-2-yl]methyl}-2-[4-(1H-pyrrol-1-yl)phenyl]acetamide], the IC50 was 500 to 5000 nM.
Turning to `O=C(Cn1ccc(-c2ccc(F)cc2)cc1=O)N(Cc1ccncc1)C1C=CS(=O)(=O)C1` (centres unmarked) [I-147, N-(1,1-dioxido-2,3-dihydrothiophen-3-yl)-2-(4-(4-fluorophenyl)-2-oxopyridin-1(2H)-yl)-N-(pyridin-4-ylmethyl)acetamide], the IC50 fell in the range of 500 to 5000 nM.
